According to patent publication US11926580B2, “Hydropersulfide precursors” (THE JOHNS HOPKINS UNIVERSITY, priority 2018, dated 2024):

Experiment: UPLC-MS analysis of RSSH trapping with N-ethylmaleimide
Assay type: physicochemical
Conditions: UPLC-MS
Experimental: FIGS. 2a and 2b provide graphs of (a) UPLC-MS chromatograms of RSSH generation from 4d (200 μM) in the presence of NEM (4 mM) incubated in pH 7.4 ammonium bicarbonate (100 mM) with DTPA (100 μM) at 37° C. A peak at 3.7 min corresponding to N-ethylmaleamic acid (NEMA), derived from NEM hydrolysis, was observed under these conditions (see SI); (b) MS spectrum (ESI+ mode) of the product eluting at 5.06 min corresponding to 5a with m/z 349.0885 (expected m/z 349.0886).
FIG. 5 provides a graph of UPLC-MS chromatograms of RSSH generation from compound 1 (1 mM) in the presence of NEM (5 mM) incubated in pH 7.4 ammonium bicarbonate buffer containing DTPA (100 μM) for 30 min at 37° C. The asterisk indicates the methyl ester analogue of dialkyl trisulfide 2, which was also formed due to the presence of minor amount of methyl ester analogue of 1. A peak at 3.7 min corresponding to N-ethylmaleamic acid (NEMA), derived from NEM hydrolysis, was observed under these conditions.
RSSH trapping in the presence of N-ethylmaleimide (NEM) was carried out with a Waters Acquity/Xevo-G2 UPLC-MS system equipped with an ACQUITY UPLC BEH C18 column (2.1 mm×50 mm, 1.7 μm). Typically, RSSH precursor (1 eq) was incubated with NEM (5 to 20 eq) in freshly prepared pH 7 4 ammonium bicarbonate buffer (100 mM) containing DTPA (100 μM) at 37° C. An aliquot of the reaction mixture (300 μL) was withdrawn at specified time points, quenched with 0.25% formic acid (300 μL), and filtered through a 0.22 μm filter. The samples were then loaded into vials in an autosampler maintained at 4° C. and analyzed using UPLC-MS as follows: Mobile phase: 0-1 min 90% water+0% ACN+10% formic acid (0.1%); 1-7.5 min gradient up to 10% water+80% ACN+10% formic acid (0.1%); 7.5-8.4 min 10% water+80% ACN+10% formic acid (0.1%); 8.4-8.5 min gradient up to 90% water+0% ACN+10% formic acid (0.1%), 8.5-10 min 90% water+0% ACN+10% formic acid (0.1%). Flow rate=0.3 mL min^−1. The mass signals for products of RSSH trapping with NEM were obtained via deconvolution using MassLynx 4.1 software.
To a solution of NEM (5 mM) in pH 7 4 ammonium bicarbonate (100 mM) with DTPA (100 μM) in a 20-mL scintillation vial, hydropersulfide precursor 1 (1 mM, total reaction volume 3 mL) was added. The resulting mixture was incubated at 37° C. for 30 min. An aliquot of 300 μL reaction mixture was withdrawn, quenched with 300 μL of formic acid (0.25%) and analyzed using UPLC-MS.

## CC(=O)NC(C(=O)O)C(C)(C)SSC(=N)Nc1ccccc1.Cl (centres unmarked) [Precursor 4d, ((1-acetamido-1-carboxy-2-methylpropan-2-yl)disulfaneyl)(phenylamino)methaniminium chloride]
NEM trap, pH 7.4 buffer, 37° C.
  RSSH generation (RSS-NEM adduct formation): clean conversion of 4d to the RSS-NEM adduct 5a
NEM, pH 7.4, 37° C.
  phenyl cyanamide yield from precursor decomposition: 94%
